Experiment [1] relates to human neutrophils. In words: Effect of signaling pathway inhibitors on directional neutrophil migration in IL-8 gradients (microfluidic device). In kind it is cell-based. The text has this:
Microfluidic Migration Assay and Timelapse Microscopy: Neutrophils (1×10^3 cells) were placed uniformly across the migration channel and allowed to migrate under a linear gradient of human Interleukin-8 (72 a.a.; PeproTech, Rocky Hill, N.J.) in IMDM with 0.5% (w/v) FCS flowing at 0.1 mm/sec. […] Brightfield images were taken every 30 seconds using a C4742-95 Hamamatsu digital camera (Hamamatsu, Japan) controlled by IPLab 3.6.1 (Scanalytics, Fairfax, Va.). Cell movement was always observed at a set point along the migration channel. Gradients were also calibrated at this set point. Migration was quantified for all cells across the gradient.
Signaling Pathway Inhibitors: Cells were treated with pertussis toxin (100 ng/mL; 30 minutes at 37° C.), wortmannin (1 μM, 10 μM; 20 minutes at 37° C., 8-Br-cAMP (1 mM; 15 minutes at room temperature), 8-Br-cGMP (1 mM; 15 minutes at room temperature) (Sigma-Aldrich), or the CXCR2 non-peptide antagonist, SB225002 (1 pM, 100 pM, 1 nM, or 1 μM for 15 minutes at 37° C.; Calbiochem, Calif.). Immediately after treatment cells were seeded in migration channel of the microfluidic device and allowed to migrate as described above.
Since receptor occupancy is known to play a role in directional decision making and gradient sensing in the context of chemotaxing eukaryotic cells, it was postulated that chemokine receptor occupancy by a chemokine might also play a critical role in the decision of a cell to move up or down a chemokine gradient. Thus, a SB25002, the specific non-peptide antagonist of the IL-8 receptor, CXCR2 was utilized to examine this postulate. Neutrophils were pretreated with SB225002 at concentrations between 1 pM and 1 μM and then exposed to 0 to 1.2 μM gradients of IL-8 in microfabricated devices as described above. Videos of cell migration were analysed using MetaMorph and MathLab software to generate normalized angular frequencies determined for cells migrating in each of the three sectors of the gradient. The absence of inhibitor generates a normalized angular frequency of 1.0 whereas inhibition of fugetactic or chemotactic angular frequencies results in a normalized frequency of <1.0 and augmentation of either directional response results in a value greater than 1. This analysis allows to precisely quantitate the effect of a given concentration of inhibitor on the directional decision of the cell to move up or down a gradient. […] Furthermore, although IL-8 binds to both CXCR2 and CXCR1 on the cell surface, of the human neutrophil bi-directional signaling was evidently critically dependent on CXCR2.
It had been previously shown that the signaling pathway for chemotaxis is distinct from that for chemorepulsion or fugetaxis. […] The study of neutrophil migration in microfabricated devices allows to examine precisely the effects of these inhibitors on quantitative parameters of cell migration including the directional bias of cells in the context of precisely defined and stable chemokine gradients. Primary human neutrophils were pretreated with known inhibitors of the chemokine signal transduction pathway including pertussis toxin, wortmannin, genistein, 8-Br-cAMP and 8-Br-cGMP and then exposed to IL-8 gradients in which chemotaxis and fugetaxis were seen. The effect of the inhibitor on directional migration towards or away from the chemokine was quantitated by determining the directional motility index of cells migrating in the context of these gradients. Movement vector angles corresponding to movement up the gradient (30 to 150 degrees—see FIG. 13) were defined as chemotactic and measured movement vector angles corresponding to movement down the gradient (210 to 330 degrees—see figure) were defined as fugetactic. The directional choice of cells to move up or down a chemokine gradient were therefore compared in the presence and the absence of an inhibitor. […]

Experiment [2] concerns human neutrophils. In words: Microfluidic migration assay of neutrophils in linear gradients of IL-8. It is filed as cell-based. How it is done: Neutrophil isolation: Human whole blood was obtained from healthy volunteers by venipuncture into tubes containing sodium heparin (Becton Dickinson, San Jose, Calif.). Whole blood was centrifuged for 4 minutes at 2400 rpm and plasma was removed. Resulting pellet was resuspended in Iscove's Modified Dulbecco's Medium (IMDM; Cellgro MediaTech, Herndon, Va.) with 0.5% (w/v) fetal calf serum FCS; Cellgro MediaTech). 25 mL of suspension was layered over 10 mL Lymphocyte Separation Medium (ICN, Irvine, Calif.) and centrifuged for 40 minutes at 1600 rpm at 22° C. Supernatant was aspirated, resulting pellet was resuspended in IMDM with 0.5% (w/v) FCS and 2% (w/v) dextran (Sigma-Aldrich, St. Louis, Mo.), and red blood cells (RBC) were allowed to sediment for 30 minutes at room temperature. Supernatant was transferred into clean tube and centrifuged for 5 minutes at 2000 rpm. Supernatant was aspirated, pellet was mixed with cold ddH2O for hypotonic lysis of remaining RBCs, and transferred to IMDM with 0.5% (w/v) FCS. Isolated neutrophils were washed and resuspended in IMDM with 0.5% (w/v) FCS, determined to be 95% pure, and 99% viable by Trypan Blue exclusion.
Fabrication and Preparation of Microfluidic Linear Gradient Generator: The microfluidic linear gradient generator was fabricated in poly(dimethylsiloxane) (PDMS; Sylgard 184, Dow Corning, N.Y.) using rapid prototyping and soft lithography as described previously. Briefly, a high resolution printer was used to generate a transparency mask from a computer-aided design image file. The mask was used in contact photolithography with SU-8 photoresist (Microlithography Chemical Co., Newton Mass.) to generate a positive relief of patterned photoresist on a silicon wafer. Replicas with embossed channels were fabricated by curing PDMS prepolymer against the patterned wafer. Inlet and outlet ports for media and cell suspension were bored out of the cured PDMS replica using a sharpened syringe needle. The PDMS replica and glass substrate were placed in an oxygen plasma generator (150 mTorr, 100 W) for 1 minute. Immediately following plasma treatment, the PDMS replica and glass were placed against each other and irreversibly bonded. Polyethylene tubing (Becton Dickenson) was inserted into inlet and outlet ports to make the fluidic connections. Tubing was connected to a PHD 2000 syringe pump (Harvard Apparatus, Holliston, Mass.) to complete the setup. Hemostats were used to control flow during cell loading.
Microfluidic Migration Assay and Timelapse Microscopy: Neutrophils (1×10^3 […]; PeproTech, Rocky Hill, N.J.) in IMDM with 0.5% (w/v) FCS flowing at 0.1 mm/sec. […] Brightfield images were taken every 30 seconds using a C4742-95 Hamamatsu digital camera (Hamamatsu, Japan) controlled by IPLab 3.6.1 (Scanalytics, Fairfax, Va.). Cell movement was always observed at a set point along the migration channel. Gradients were also calibrated at this set point. Migration was quantified for all cells across the gradient.
Construction of Digital Videos for Quantitative Analysis: Digital videos were mad from time-lapse video microscopy file stacks or S-VHS videotapes using a combination of IPLab 3.6.1, Photoshop 6.0 (Adobe Systems, San Jose, Calif.), and Apple QuickTime Pro 5.0 (Apple Computer, Cupertino, Calif.). Migration tracking was carried out using MetaMorph 4.5 (Universal Imaging, Downington, Pa.) object tracking application, which generated tables of Cartesian coordinate data for each tracked cell.
Mathematical Analysis of Cell Migration in Linear Gradient Generator: The angular correlation function, or cosine correlation function, was calculated for each experiment. For experiments with no gradient, the correlation function decayed exponentially with increasing time interval, while the function decayed much slower, potentially by a power law, for experiments with a gradient; in all cases correlation of angles over time was increased as absolute [IL-8] increased. […]

The mark [3] stands for this setting: pretreated cells, IL-8 gradients in which chemotaxis and fugetaxis were seen.

Take pertussis toxin: in the experiment with human neutrophils [1] (setting [3]), the “effect on neutrophil chemotaxis (angular frequency, movement up the gradient)” value was “significantly inhibited” and the “effect on neutrophil fugetaxis (angular frequency, movement down the gradient)” value is recorded as “significantly inhibited”.

On to “IL-8: human Interleukin-8 (72 a.a.; PeproTech), chemokine”, for which the “Persistence time of cell movement” value with human neutrophils [2] (IL-8 gradient in which chemotaxis is seen predominantly) stood at 21.5 min; in the experiment with human neutrophils [2] (IL-8 gradient in which fugetaxis is seen predominantly) it was 10.9 min; in the experiment on human neutrophils [2] (uniform concentration of IL-8 (chemokinesis)), 4.5 min. Moreover, the neutrophil migratory behaviour result was “underwent chemokinesis” with human neutrophils [2] (chemokine at a uniform concentration across the migration channel); “underwent chemokinesis” with human neutrophils [2] (gradient of 0 to 1.2, cells commencing in the central third of the gradient); “chemotaxed towards higher levels of the chemokine” with human neutrophils [2] (gradient of 0 to 1.2, cells in the lower third of the gradient); “underwent fugetaxis down the gradient” in the experiment with human neutrophils [2] (gradient of 0 to 1.2, cells originating in the upper third of the gradient); “predominantly demonstrated chemotaxis” with human neutrophils [2] (gradients between 0 and 12 nM and 0 and 120 nM); “underwent chemokinesis regardless of their position within the gradient” with human neutrophils [2] (steepest gradient, 0 to 2.4 μM). Further, the “mean chemotropism index (MCI)” value is reported as “+0.32” in the experiment on human neutrophils [2] (gradient between 0 and 12 nM); “+0.39” with human neutrophils [2] (gradient between 0 and 120 nM); −0.13 in the experiment with human neutrophils [2] (gradient of 0 to 1.2 μM); −0.02 +/−0.01 in the experiment with human neutrophils [2] (uniform concentration of chemokine at 120 nM). Further, the “mean sectional MCI” value in the experiment with human neutrophils [2] (lower segment of the 0 to 10.2 μM gradient) is reported as “+0.2”; with human neutrophils [2] (middle third of the 0 to 10.2 μM gradient) it was −0.14; with human neutrophils [2] (upper third of the 0 to 10.2 μM gradient), −0.22.

Turning to `O=C(Nc1ccc([N+](=O)[O-])cc1O)Nc1ccccc1Br` [SB225002], in the experiment on human neutrophils [1] (1 pM and 100 pM inhibitor, 0 to 1.2 μM gradient of IL-8), the “effect on neutrophil chemotaxis (normalized angular frequency)” value was “augmented”. The “effect on neutrophil fugetaxis (normalized angular frequency)” value with human neutrophils [1] (1 pM inhibitor, 0 to 1.2 μM gradient of IL-8, p=0.0037) is listed as “significant inhibition”; with human neutrophils [1] (100 pM inhibitor, 0 to 1.2 μM gradient of IL-8, p=0.0210), “significant inhibition”. Further, in the experiment with human neutrophils [1] (gradually increasing concentrations (up to 1 μM), 0 to 1.2 μM gradient of IL-8), the “effect on neutrophil directional migration” value was “inhibited both fugetaxis and chemotaxis”.

Source of the values: patent publication US20070134657A1, “Methods and compositions relating to gradient exposed cells” (GENERAL HOSPITAL CORPORATION, THE, priority 2002, published 2007).
